Assay results as given in patent US6759420B1, “Arylalkanoyl derivatives, processes for their preparation, their use and pharmaceutical compositions containing them” (Aventis Pharma Deutschland GmbH, priority 1999, dated 2004).
Counter-ions that a name gives are not always drawn. Like-named read-outs stand apart in the source and are kept apart here.

Columns and labels:
factor Xa [1] = biological target: T1, factor Xa (Homo sapiens, UniProt P00742); assay: Factor Xa assay (Test 1a), chromogenic; format: biochemical; parameters: purchased Enzyme Research Laboratories, Inc; South Bend, Ind; settings: in vitro factor Xa assay Test 1a; human factor Xa 0.5 nM, substrate S-2765 140 μM, 25° C.; Ki from IC50 corrected for substrate competition
Description: The ability of a compound of formula (I) to inhibit factor Xa, thrombin, plasmin, elastase, and trypsin may be assessed by determining the concentration of compound of formula (I) that inhibits enzyme activity by 50% (IC50). Purified enzymes are used in chromogenic assays. To determine the inhibition constant, the IC50 value is corrected for competition with substrate using the formula:
Ki=IC50×(1/{1+((substrate concentration)/substrate Km)})
where Km is the Michaelis-Menten constant. Y. -C. Chen and W. H. Prusoff, Biochem. Pharmacol. 22: […] (1973), which is incorporated herein by reference.
TBS-PEG buffer (50 mM Tris-Cl, pH 7.8, 200 mM NaCl, 0.05% (w/v) PEG-8000, 0.02% (w/v) NaN3) is used for this assay. The IC50 is determined by combining in appropriate wells of a Costar half-area microtiter plate 25 μl human factor Xa (Enzyme Research Laboratories, Inc.; South Bend, Ind.) in TBS-PEG; 40 μl 10% (v/v) DMSO in TBS-PEG (uninhibited control) or various concentrations of the compound to be tested diluted in 10% (v/v) DMSO in TBS-PEG; and substrate S-2765 (N-benzyloxycarbonyl-D-Arg-Gly-L-Arg-p-nitroanilide; Kabi Pharmacia, Inc.; Franklin Ohio) in TBS-PEG.
The assays are performed by pre-incubating the compound of formula (I) plus enzyme for 10 min, then the assay is initiated by adding substrate to obtain a final volume of 100 μl. The initial velocity of chromogenic substrate hydrolysis is measured by the change in absorbance at 405 nm using a Bio-tek Instruments kinetic plate reader (Ceres UV900HDi) at 25° C. during the linear portion of the time course (usually 1.5 min after addition of substrate). The concentration of inhibitor that causes a 50% decrease in the rate of substrate hydrolysis is predicted by linear regression after plotting the relative rates of hydrolysis (compared to the uninhibited control) versus the log of the compound of formula (I) concentration. The enzyme concentration is 0.5 nM and substrate concentration is 140 μM.

[2] = TAP at levels giving less than about two fold aPTT prolongation; heparin at doses causing a five fold increase in aPTT; cited from earlier work
thrombin and factor Xa = settings: via anti-thrombin III; cited from earlier work
factor Xa [3] = biological target: T1, factor Xa; settings: background statement; cited from earlier work
[4] = recombinantly-produced inhibitor, cited from earlier work; for bleeding time compared to other anticoagulants: animal model systems; for clotting in thromboplastin-induced, ligated jugular vein model of deep vein thrombosis: animal model
[5] = subcutaneous; cited from earlier work

T1 sequence (P00742 235-488 limits assumed): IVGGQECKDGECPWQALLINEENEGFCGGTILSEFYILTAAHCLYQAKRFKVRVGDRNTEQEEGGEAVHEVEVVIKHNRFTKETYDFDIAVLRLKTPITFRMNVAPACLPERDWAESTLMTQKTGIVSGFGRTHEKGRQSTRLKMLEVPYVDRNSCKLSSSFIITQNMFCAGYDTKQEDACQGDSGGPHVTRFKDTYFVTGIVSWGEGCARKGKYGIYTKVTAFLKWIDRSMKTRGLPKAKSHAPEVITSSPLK
T1 sequence (P00742 41-179 limits assumed): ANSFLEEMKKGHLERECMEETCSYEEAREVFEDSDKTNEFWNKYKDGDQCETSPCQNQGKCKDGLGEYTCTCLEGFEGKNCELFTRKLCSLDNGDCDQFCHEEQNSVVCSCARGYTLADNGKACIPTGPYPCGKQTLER

Molecule	Ki (factor Xa [1]) [nM]	other results
N=C(N)c1ccc(CC(C(=O)N[C@H](C(=O)NCC2CCN(C(=N)N)CC2)C2CCCCC2)c2ccccc2)cc1 (single isomer, unassigned; less polar) [Example 222]	43	
CC(=N)N1CCC(CNC(=O)C(NC(=O)C(Cc2ccc(C(=N)N)cc2)c2cccc(Br)c2)C2CCCCC2)CC1 (single isomer, unassigned; less polar) [Example 223]	1	
N=C(N)c1ccc(CC(C(=O)N[C@H](C(=O)NCC2CCN(C(=N)N)CC2)C2CCCCC2)c2ccccc2Cl)cc1 (single isomer, unassigned; less polar) [Example 230]	1	
N=C(N)c1ccc(CC(C(=O)N[C@H](C(=O)NCC2CCN(C(=N)N)CC2)C2CCCCC2)c2ccc(C(F)(F)F)cc2)cc1 (single isomer, unassigned; less polar) [Example 232]	24	
N=C(N)c1ccc(CC(C(=O)N[C@H](C(=O)NCC2CCN(C(=N)N)CC2)C2CCCCC2)c2ccccc2OC(F)(F)F)cc1 (single isomer, unassigned; less polar) [Example 233]	33	
N=C(N)c1ccc(CC(C(=O)N[C@H](C(=O)NCC2CCN(C(=N)N)CC2)C2CCCCC2)c2ccccc2F)cc1 (single isomer, unassigned; less polar) [Example 235]	12	
N=C(N)c1ccc(CC(C(=O)N[C@H](C(=O)NCC2CCN(C(=N)N)CC2)C2CCCCC2)c2ccccc2Br)cc1 (single isomer, unassigned; less polar) [Example 236]	5	
N=C(N)c1ccc(CC(C(=O)N[C@H](C(=O)NCC2CCN(C(=N)N)CC2)C2CCCCC2)c2cccc3ccccc23)cc1 (single isomer, unassigned; less polar) [Example 241]	25	
CC(C)OC(=O)[C@H](CCCNC(=N)N)NC(=O)[C@@H](NC(=O)C(Cc1ccc(C(=N)N)cc1)c1cccc(Br)c1)C1CCCCC1 (single isomer, unassigned; less polar) [Example 242]	2	
CN(C)C(=O)[C@H](CCCNC(=N)N)NC(=O)[C@@H](NC(=O)C(Cc1ccc(C(=N)N)cc1)c1cccc(Br)c1)C1CCCCC1 (single isomer, unassigned; less polar) [Example 246]	0.7	
CS(=O)(=O)c1cccc(C(Cc2ccc(C(=N)N)cc2)C(=O)N[C@H](C(=O)NCC2CCN(C(=N)N)CC2)C2CCCCC2)c1 (single isomer, unassigned; less polar) [Example 252]	31	
CC(=N)N1CCC(CNC(=O)[C@@H](NC(=O)C(Cc2ccc(C(=N)N)cc2)c2cccc(C(F)(F)F)c2)C2CCCCC2)CC1 (single isomer, unassigned; less polar) [Example 258]	8	
N=C(N)NCCCC(NC(=O)C(NC(=O)C(Cc1ccc(C(=N)N)cc1)c1cccc(Cl)c1)C1CCCCC1)C(N)=O (single isomer, unassigned; more polar) [Example 125]	2570	
Cc1ccc(C(Cc2ccc(C(=N)N)cc2)C(=O)NC(C(=O)NCc2ccc(C(=N)N)cc2)C2CCCCC2)cc1 (single isomer, unassigned; more polar) [Example 153]	5840	
Cc1ccccc1C(Cc1ccc(C(=N)N)cc1)C(=O)NC(C(=O)NCC1CCN(C(=N)N)CC1)C1CCCCC1 (single isomer, unassigned; more polar) [Example 162]	25	
CC(C)OC(=O)[C@H](CCCNC(=N)N)NC(=O)[C@@H](NC(=O)C(Cc1ccc(C(=N)N)cc1)c1cccc(Br)c1)C1CCCCC1 (single isomer, unassigned; more polar) [Example 243]	25	
N=C(N)NCCC[C@H](NC(=O)[C@@H](NC(=O)C(Cc1ccc(C(=N)N)cc1)c1cccnc1)C1CCCCC1)C(N)=O (stereo partly drawn) [Example 10, 2-(S)-{2-(S)-[3-(4-Carbamimidoyl-phenyl)-2-(R,S)-pyridin-3-yl-propionylamino]-2-cyclohexyl-acetylamino}-5-guanidino-pentanoic acid amide trifluoroactic acid salt]	0.9	
N=C(N)NCCC[C@H](NC(=O)C(NC(=O)C(Cc1ccc(C(=N)N)cc1)C1CCCCC1)C1CCCCC1)C(=O)NCc1cccs1 (stereo partly drawn) [Example 192, 2-(S)-{2-[3-(4-Carbamimidoyl-phenyl)-2-cyclohexyl-propionylamino]-2-cyclohexyl-acetylamino}-5-guanidino-pentanoic acid (thiophen-2-ylmethyl)-amide trifluoroacetic acid salt]	44	
N=C(N)NCCC[C@H](NC(=O)C(NC(=O)C(Cc1ccc(C(=N)N)cc1)C1CCCCC1)C1CCCCC1)C(=O)NCc1ccncc1 (stereo partly drawn) [Example 194, 2-(S)-{2-[3-(4-Carbamimidoyl-phenyl)-2-cyclohexyl-propionylamino]-2-cyclohexyl-acetylamino}-5-guanidino-pentanoic acid (pyridin-4-ylmethyl)-amide trifluoroacetic acid salt]	34	
N=C(N)NCCC[C@H](NC(=O)C(NC(=O)C(Cc1ccc(C(=N)N)cc1)C1CCCCC1)C1CCCCC1)C(=O)NC(c1ccccc1)c1ccccc1 (stereo partly drawn) [Example 195, 2-(S)-2-[3-(4-Carbamimidoyl-phenyl)-2-cyclohexyl-propionylamino]-2-cyclohexyl-acetylamino}-5-guanidino-pentanoic acid benzhydryl-amide trifluoroacetic acid salt]	32	
N=C(N)NCCC[C@H](NC(=O)C(NC(=O)C(Cc1ccc(C(=N)N)cc1)C1CCCCC1)C1CCCCC1)C(=O)NCc1ccccc1 (stereo partly drawn) [Example 196, 2-(S)-{2-[3-(4-Carbamimidoyl-phenyl)-2-cyclohexyl-propionylamino]-2-cyclohexyl-acetylamino}-5-guanidino-pentanoic acid benzylamide trifluoroacetic acid salt]	39	
N=C(N)NCCC[C@H](NC(=O)C(NC(=O)C(Cc1ccc(C(=N)N)cc1)C1CCCCC1)C1CCCCC1)C(=O)NCc1ccc(Cl)cc1 (stereo partly drawn) [Example 201, 2-(S)-{2-[3-(4-Carbamimidoyl-phenyl)-2-cyclohexyl-propionylamino]-2-cyclohexyl-acetylamino}-5-guanidino-pentanoic acid 4-chloro-benzylamide trifluoroacetic acid salt]	42	
COc1ccc(CNC(=O)C(CCCNC(=N)N)NC(=O)C(NC(=O)C(Cc2ccc(C(=N)N)cc2)C2CCCCC2)C2CCCCC2)cc1 [Example 202, 2-(S)-{2-[3-(4-Carbamimidoyl-phenyl)-2-cyclohexyl-propionylamino]-2-cyclohexyl-acetylamino}-5-guanidino-pentanoic acid 4-methoxy-benzylamide trilfuoroacetic acid salt]	28	
N=C(N)c1ccc(CC(C(=O)N[C@H](C(=O)NCC2CCN(C(=N)N)CC2)C2CCCCC2)c2ccccc2F)cc1 (stereo partly drawn) [Example 214, 3-(4-Carbamimidoyl-phenyl)-N-{(S)-[(1-carbamimidoyl-piperidin-4-ylmethyl)-carbamoyl]-cyclohexyl-methyl}-2-(2-fluoro-phenyl)-propionamide trifluoroacetic acid salt]	47	
heparin		"high-shear" arterial thrombosis and "reduced flow" caused by polyester (DACRON) graft [2]: did not prevent thrombosis; thrombin inactivated faster than factor Xa (thrombin and factor Xa): approximately 100 times
tick anticoagulant peptide (YNRLCIKPRDWIDECDSNEGGERAYFRNGKGGCDSFWICPEDHTGADYYSSYRDCFNACI; UniProt P17726 1-60, looked up) [TAP, reference compound]		Ki (factor Xa [3]): ~0.5 nM; bleeding time compared to other anticoagulants [4]: decrease bleeding time; clotting in thromboplastin-induced, ligated jugular vein model of deep vein thrombosis [4]: prevent clotting; "high-shear" arterial thrombosis and "reduced flow" caused by polyester (DACRON) graft [2]: effectively prevents
antistasin (protein, UniProt P15358 18-136, looked up) Antistasin: QGPFGPGCEEAGCPEGSACNIITDRCTCSGVRCRMHCPHGFQRSRYGCEFCKCRLEPMKATCDISECPEGMMCSRLTNKCDCKIDINCRKTCPNGLKRDKLGCEYCECRPKRKLIPRLS		Ki (factor Xa [3]): 0.05 nM; treatment in thromboplastin-induced model of disseminated intravascular coagulation [5]: effective treatment; bleeding time compared to other anticoagulants [4]: decrease bleeding time; clotting in thromboplastin-induced, ligated jugular vein model of deep vein thrombosis [4]: prevent clotting
